Test results from article PMC3842960, “Natural Stilbenoids Isolated from Grapevine Exhibiting Inhibitory Effects against HIV-1 Integrase and Eukaryote MOS1 Transposase In Vitro Activities” (PLoS ONE, 2013).

What was measured:
[1] = target: T1, Mos1 transposase (MOS1) (Drosophila mauritiana, UniProt Q7JQ07); assay: MOS1 in vitro transposition assay (genetic hop experiment); type: biochemical, D. mauritiana
T1 construct: involving the full-length Mos1 transposase (MOS1) was recently solved; made in house
T1 sequence (Q7JQ07 whole entry): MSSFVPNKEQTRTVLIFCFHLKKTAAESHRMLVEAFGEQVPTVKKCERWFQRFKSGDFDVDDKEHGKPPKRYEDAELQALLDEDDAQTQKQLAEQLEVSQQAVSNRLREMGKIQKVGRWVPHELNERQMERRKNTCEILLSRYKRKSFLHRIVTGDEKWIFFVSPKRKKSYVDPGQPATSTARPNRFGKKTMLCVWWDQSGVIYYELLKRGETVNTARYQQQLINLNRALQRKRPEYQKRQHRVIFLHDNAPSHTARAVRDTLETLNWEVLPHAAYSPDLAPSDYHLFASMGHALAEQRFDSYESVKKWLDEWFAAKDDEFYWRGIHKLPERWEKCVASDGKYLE
Description: The wild type Mos1 transposase (MOS1: 345 amino acids) was produced and purified as a fusion protein linked to the maltose-binding protein by using the pMal-c2 system (New England Biolabs) and following the manufacturer's instructions.
In vitro transposition reactions were performed using pBC-3T3 as both the donor DNA and the target, as previously described. Briefly, the basic transposition reaction mixtures contained 10 mM Tris-HCl (pH 9), 50 mM NaCl, 20 mM MgCl2, 0.5 mM EDTA, 5% glycerol, 5 ng/ml BSA, 600 ng pBC-3T3, and 80 nM purified MBP-MOS1 (added last) in a volume of 20 µl. Inhibitors (25 or 10 µM, as specified) or DMSO (2%) were added to the reaction mixtures before the transposase. The reactions were allowed to proceed for 30 min at 30°C. After phenol-chloroform extraction and ethanol precipitation, 10% of the reaction mixture was transformed in electro-competent JM109 E. coli (2 mm cuvette, 1.5 kV in a MicroPulser™BioRad). Appropriate dilutions of each reaction mixture were plated on LB-tetracycline (12.5 µg/ml) agar and LB-chloramphenicol (80 µg/ml) agar to score the transposition rate. The transposition rate was the number of Tet^R colonies divided by the number of Chloram^R plus Tet^R colonies. Each condition was done at least three times in independent experiments.
To identify the natural stilbenes active on MOS1, the 17 molecules were tested using an in vitro genetic “hop” experiment, which is the most sensitive test available as yet. Purified MOS1 was incubated with the pBC-3T3 plasmid, which was used both as the transposon donor and the target plasmid. This plasmid contains the pBR322 tetracycline resistance gene (without promoter) framed by two Mos1 ITRs. This reconstitutes a pseudo-Mos1 element named 3T3. We took advantage of the fact that the cat gene (present in the pBC backbone) is a hotspot for Mos1 integration. […] Transposition events were recovered by bacterial transformation with selection for tetracycline resistance, as a gain-of-function landmark for transposition. […] Controls correspond to assays performed without molecule but with DMSO, which is routinely used as the solvent. […] To confirm the efficiency of the six molecules, they were similarly assayed at 10 µM ( figure 6B ). Since they appeared to be still active at 10 µM, they were further characterized in order to identify the targeted step of the transposition cycle.

[2] = target: T1, Mos1 transposase (MOS1); assay: MOS1 in vitro excision assay; type: biochemical, D. mauritiana; details: for inhibition at 25 µM: DMSO control as reference, read-out: inhibition of in vitro excision reaction; for IC50: concentration range, sigmoid dose-response fit
Description: Basic excision reaction mixtures contained 10 mM Tris-HCl (pH 9), 50 mM NaCl, 20 mM MgCl2, 0.5 mM EDTA, 0.5 mM DTT, 100 ng BSA, 600 ng of super-coiled pBC-3T3, and 80 nM MBP-MOS1 (added last) in a volume of 20 µl. Molecules (25 or 10 µM, as specified) or DMSO (2%) were added to the reaction mixtures before the transposase. The reactions were allowed to proceed at 30°C for 30 min before 2 µl of stop solution (loading buffer) were added. The reaction mixtures were then incubated at 65°C for 10 min. Each reaction was analysed by overnight electrophoresis at 2.7 V/cm on a TAE-buffered 1% agarose gel with ethidium bromide (0.3 mg/ml). After electrophoresis, the gel was photographed on a transilluminator. ImageGauge 4.22 software (Fujifilm) was used to quantify the bands. Each condition was tested at least twice.
The ability of the selected molecules to inhibit excision was tested in vitro using the pBC-3T3 plasmid as the transposon donor. MOS1 triggers the excision of the pseudo-Mos1 from the plasmid producing two linear DNA fragments, the transposon and the plasmid backbone, together with intermediate products (open circle plasmids which contained single strand nicks and linear plasmids which contained a double strand nick at one ITR). After excision, the transposon could be reintegrated, making it difficult to detect in electrophoresis. The activity of the molecules was measured by quantifying the plasmid backbone, the end product of the reaction. The assays were performed with final concentrations of 25 and 10 µM molecules. Controls correspond to assays performed without molecule but with DMSO. […] Reactions were performed at least twice for each selected molecules (leachianol G, leachianol F, quadrangularin A, hopeaphenol, vitisin B and pallidol) and the excision activity is reported in figure 7B . […] The six selected molecules were then tested for the integration step of Mos1 transposition.

Row | SMILES | activity against MOS1 in transposition assay ([1]; 10 µM) | activity against MOS1 in transposition assay ([1]; 25 µM) | inhibition at 25 µM [2] [%] | IC50 [2] [µM]
1 | Oc1ccc([C@@H]2c3c(O)cc(O)cc3[C@H]3c4c(cc(O)cc4C2C2c4cc(O)cc5c4[C@H](c4cc(O)cc(O)c4[C@H]2c2ccc(O)cc2)[C@@H](c2ccc(O)cc2)O5)O[C@@H]3c2ccc(O)cc2)cc1 (some centres unmarked) [hopeaphenol] | still active | active against MOS1 | > 50 | 8.5
2 | Oc1ccc([C@@H]2c3c(O)cc(O)cc3[C@H]3[C@H](c4ccc(O)cc4)c4c(O)cc(O)cc4[C@@H]23)cc1 [pallidol] | still active | active against MOS1 | > 50 | 8
